Measurements published in patent US4471113A, “Prodrugs based on phospholipid-nucleoside conjugates” (priority 1982, dated 1984).
Where two headings read alike, the source gives them in different places. Each block holds one compound with its values, some of them ahead of it.

Tests used:
[1] = tested on: deaminase enzymes; conditions: cited from earlier work; for protection of parent drug from catabolic degradation: lipophilic fatty acid esters; for catabolism via deaminase enzymes: to ineffective metabolites
[2] = in vivo studies; cited from earlier work
[3] = tested on: mouse myeloma MPC-11 (subclone 66.2) cells; assay: In vitro antiproliferative activity against mouse myeloma MPC-11 (subclone 66.2) cell line; format: cell-based
[4] = Solubilization of suspensions by sonication; format: physicochemical; conditions: aqueous suspension at room temperature
Source text: In the study of biological activity of the compositions of Examples 1f and II-VII, it was first necessary to prepare solutions at room temperature. Suspensions of the compounds of Examples 1f and II-VII were all subjected to known sonication techniques in order to aid solubilization. […] Finally, the best means of solubilization was achieved by mixing the sample with araCDP-L-dipalmitin prior to sonication. In this fashion, mixtures having ratios (by weight) of the mono- to diphosphate linked derivatives from 1:2 through to 3:1 were made up and such mixtures were used for the in vitro inhibition studies.

[5] = in vivo; cited from earlier work
[6] = samples made up in H2O, read-out: ED50 (the source's name)
[7] = samples made up in 0.9% saline/0.1 mM Tris, pH 7.1, read-out: ED50 (the source's name)
[8] = solvent not stated, read-out: dose required for 50% inhibition of growth of cells in tissue culture (ED50)

Compound: Nc1ccn([C@@H]2O[C@H](COC(=O)C34CC5CC(CC(C5)C3)C4)[C@@H](O)[C@@H]2O)c(=O)n1 [5'-O-adamantoyl-araC]
- protection of parent drug from catabolic degradation [1]: protected the parent drug from catabolic degradation

Compound: CCCCCCCCCCCCCCCC(=O)OC[C@H]1O[C@@H](n2ccc(N)nc2=O)[C@@H](O)[C@@H]1O [5'-O-palmitoyl-araC]
- therapeutic advantage in vivo [2]: no therapeutic advantages
- protection of parent drug from catabolic degradation [1]: protected the parent drug from catabolic degradation

Compound: CCCCC(=O)OC[C@H]1O[C@@H](n2cnc3c(N)ncnc32)[C@@H](O)[C@@H]1O [5'-O-valeryl-araA]
- protection of parent drug from catabolic degradation [1]: protected the parent drug from catabolic degradation

- IC50 [3, 6]: 5 µM
Compound: CCCCCCCCCCCCCCCC(=O)OC[C@H](COP(=O)(O)OP(=O)(O)OC[C@H]1O[C@@H](n2ccc3c(N)ncnc32)[C@H](O)[C@@H]1O)OC(=O)CCCCCCCCCCCCCCC [TubercidinDP--L-dipalmitin, Tubercidin-5'-diphosphate-L-1,2-dipalmitin]

Compound: Nc1ncnc2c1ncn2[C@@H]1O[C@H](CO)[C@@H](O)[C@@H]1O [araA, 9-β-D-arabinofuranosyladenine]
- catabolism via deaminase enzymes [1]: rapid catabolism

Compound: Nc1ccn([C@@H]2O[C@H](CO)[C@@H](O)[C@@H]2O)c(=O)n1 [araC, 1-β-D-arabinofuranosylcytosine]
- IC50 [3, 7]: 0.85 µM
- IC50 [3, 6]: 0.99 µM
- catabolism via deaminase enzymes [1]: rapid catabolism

- IC50 [3, 7]: 13.1 µM
- IC50 [3, 8]: 15 µM
Compound: CCCCCCCCCCCCCC(=O)OC[C@H](COP(=O)(O)OP(=O)(O)OC[C@H]1O[C@@H](n2ccc(N)nc2=O)[C@@H](O)[C@@H]1O)OC(=O)CCCCCCCCCCCCC [araCDP-L-dimyristin]

- IC50 [3, 7]: 43.9 µM
- IC50 [3, 8]: 62 µM
Compound: CCCCCCCC/C=C\CCCCCCCC(=O)OC[C@H](COP(=O)(O)OP(=O)(O)OC[C@H]1O[C@@H](n2ccc(N)nc2=O)[C@@H](O)[C@@H]1O)OC(=O)CCCCCCC/C=C\CCCCCCCC [araCDP-L-diolein, 1-β-D-Arabinofuranosylcytosine-5'-diphosphate-L-1,2-diolein]

- IC50 [3, 7]: 42.1 µM
- IC50 [3, 8]: 65 µM
Compound: CCCCCCCCCCCCCCCC(=O)OC[C@H](COP(=O)(O)OP(=O)(O)OC[C@H]1O[C@@H](n2ccc(N)nc2=O)[C@@H](O)[C@@H]1O)OC(=O)CCCCCCCCCCCCCCC [araCDP-L-dipalmitin]

- IC50 [3, 7]: 168 µM
- IC50 [3, 8]: 195 µM
- solubilization by sonication [4]: remained slightly opalescent
Compound: CCCCCCCCCCCCCCCCCC(=O)OC[C@H](COP(=O)(O)OP(=O)(O)OC[C@H]1O[C@@H](n2ccc(N)nc2=O)[C@@H](O)[C@@H]1O)OC(=O)CCCCCCCCCCCCCCCCC [araCDP-L-distearin, 1-β-D-Arabinofuranosylcytosine-5'-diphosphate-L-1,2-distearin]

Compound: CCCCCCCCCCCCCCCC(=O)OC[C@H](COP(=O)(O)OC[C@H]1O[C@@H](n2ccc(N)nc2=O)[C@@H](O)[C@@H]1O)OC(=O)CCCCCCCCCCCCCCC [araCMP-L-dipalmitin]
- solubilization by sonication [4]: resisted solubilization even when samples were mixed with several types of detergent prior to sonication

Compound: O=c1ccn([C@@H]2O[C@H](CO)[C@@H](O)[C@@H]2O)c(=O)[nH]1 [araU, 1-β-D-arabinofuranosyluracial]
- appearance of metabolite in urine [5]: appears rapidly in human urine
